Series [1] concerns Trypanosoma brucei brucei. Kind of series: In vitro antiprotozoal activity against Trypanosoma brucei brucei. The format is cell-based. The procedure:
(§1) In vitro antiprotozoal activities, see Ismail, M. A., et al., J. Med. Chem. 46, 4761-4769 (2003), and cytotoxicity were measured following established protocols, see Balz, T., et al., EMBO J., 4, 1273-1277 (1985); Räz. B., et al., Acta Trop., 68:139-147 (1997); and Sperandeo, N. R. et al., Chem. Biochem., 4, 69-73 (2003). […] Other positive controls employed were melarsoprol (against T. brucei), chloroquine, and artemisinin (against P. falciparum), and podophyllotoxin (against VERO cells).

The test system of series [2] is Plasmodium falciparum. As to the kind of experiment: In vitro antiprotozoal activity against Plasmodium falciparum. The format is cell-based. The procedure: as §1
Series [3] is described as follows: Cytotoxicity to VERO cells. Format: cell-based, African green monkey (Cercopithecus Aethiops). The settings on record: African green monkey (Cercopithecus aethiops), IC50 (μM) Cytotoxicity VERO cells. The procedure:
as §1

Series [4] concerns VERO cells. As to the kind of experiment: Cytotoxicity to VERO cells. Format: cell-based, African green monkey (Cercopithecus Aethiops). As to the method: as §1
The mark [5] stands for this setting: Trypanosoma brucei, Table 1, read-out: IC50 (μM) Trypanosoma brucei brucei.
Where [6] appears, read: Trypanosoma brucei, read-out: IC50 values against T. brucei brucei.
The mark [7] stands for this setting: Plasmodium falciparum, Table 1, read-out: IC50 (μM) Plasmodium falciparum.
The mark [8] stands for this setting: Plasmodium falciparum, read-out: antiplasmodial IC50 values (P. falciparum).
The mark [9] stands for this setting: Chlorocebus sabaeus, Vero, read-out: IC50 value against VERO cells.
The mark [10] stands for this setting: Table 1, read-out: IC50 (μM) Trypanosoma brucei brucei.
The mark [11] stands for this setting: Table 1, read-out: IC50 (μM) Plasmodium falciparum.
[12] abbreviates: Table 1, read-out: IC50 (μM) Cytotoxicity VERO cells.

18 molecules from US7951827B2, “Synthesis and antiprotozoal activity of dicationic 3,5-diphenylisoxazoles” (The University of North Carolina at Chapel Hill, priority 2005, dated 2011) can be followed below.

Structures are written as SMILES. Where a name gives a salt, the structure may show the parent alone. Read-outs that look alike come from different tables or passages of the source. A value given as a limit tells only on which side of the number the result lay.

Turning to `COc1cc(C(=N)N)ccc1-c1cc(-c2cc(C(=N)N)ccc2OC)on1.Cl.Cl` [Compound 31, 3-(4-Amidino-2-methoxyphenyl)-5-(5-amidino-2-methoxyphenyl)isoxazole dihydrochloride], the melting point is 330 °C (dec.). In series [1] (setting [5]), the half-maximal inhibitory concentration (IC50) is 0.0057 µM. Moreover, in series [1] (setting [6]), the IC50 lay in the range of 0.0035 to 0.009 µM. Besides, the IC50 in series [2] (setting [7]) stood at 0.0297 µM. In addition, the IC50 in series [2] (setting [8]) is 0.008 to 0.03 µM. This molecule also registered an IC50 in series [3] of 191 µM. Also, the IC50 in series [4] (setting [9]) was more than 100 µM.
On to `COc1cc(C(=N)N)ccc1-c1cc(-c2ccc(C(=N)N)cc2)on1.Cl.Cl` [Compound 11, 3-(4-Amidino-2-methoxyphenyl)-5-(4-amidinophenyl)isoxazole dihydrochloride], for which the melting point was 335 to 337 °C (dec.). Further, in series [1] (setting [5]), the IC50 stood at 0.0164 µM. Besides, the IC50 in series [2] (setting [7]) worked out at 0.0663 µM. Further, the IC50 in series [3] stood at 92.6 µM. For the same molecule, the concentration for half-maximal inhibition (IC50) in series [4] (setting [9]) was more than 100 µM.
Take `Cl.Cl.N=C(N)c1cccc(-c2cc(-c3ccc(C(=N)N)cc3[N+](=O)[O-])no2)c1` [Compound 27, 3-(4-Amidino-2-nitrophenyl)-5-(3-amidinophenyl)isoxazole dihydrochloride]: the melting point was 236 °C (dec.). In addition, the IC50 in series [1] (setting [5]) worked out at 0.0194 µM. For the same molecule, the half-inhibitory concentration (IC50) in series [2] (setting [7]) worked out at 0.0304 µM. In series [3], this molecule registered an IC50 of 206 µM. For the same molecule, in series [4], the “toxicity (VERO cells) in words” value is “low toxicity”. Moreover, the IC50 in series [4] (setting [9]) is more than 100 µM.
For `COc1ccc(C(=N)N)cc1-c1cc(-c2cccc(C(=N)N)c2)no1.Cl.Cl` [Compound 37, 5-(5-Amidino-2-methoxyphenyl)-3-(3-amidinophenyl)isoxazole dihydrochloride], the melting point is 240 °C (dec.). In addition, the IC50 in series [1] (setting [5]) amounted to 0.0074 µM. The concentration for half-maximal inhibition (IC50) in series [1] (setting [6]) was in the range of 0.0035 to 0.009 µM. Moreover, the IC50 in series [2] (setting [7]) came to 0.0192 µM. Also, the IC50 in series [2] (setting [8]) lay in the range of 0.008 to 0.03 µM. This molecule also came in with an IC50 in series [3] of 124 µM. The IC50 in series [4] (setting [9]) is more than 100 µM.
Regarding `COc1ccc(C(=N)N)cc1-c1cc(-c2ccc(C(=N)N)cc2)on1.Cl.Cl` [Compound 21, 3-(5-Amidino-2-methoxyphenyl)-5-(4-amidinophenyl)isoxazole dihydrochloride], the melting point fell in the range of 272 to 275 °C. Moreover, the IC50 in series [1] (setting [5]) came out at 0.0118 µM. In series [2] (setting [7]), the IC50 is 0.0026 µM. For the same molecule, the IC50 in series [3] stood at 213 µM. Also, the IC50 in series [4] (setting [9]) was more than 100 µM.
In the case of `c1cc(-c2cc(-c3ccc(C4=NCCN4)cc3)on2)ccc1C1=NCCN1` [Compound 5, 3,5-Bis[4-(2-imidazolinyl)phenyl]isoxazole dihydrochloride], the IC50 in series [1] (setting [10]) was 0.0872 µM; in series [2] (setting [11]), 0.0041 µM; in series [4], 1.81 µM.
With `c1cc(C2=NCCN2)cc(-c2cc(-c3ccc(C4=NCCN4)cc3)no2)c1` [Compound 24, 3-[4-(2-Imidazolinyl)phenyl]-5-[3-(2-imidazolinyl)phenyl]isoxazole dihydrochloride], the values for the IC50 in series [1] (setting [10]), in series [2] (setting [11]) and in series [4] (setting [12]) were 0.974 µM, 0.077 µM and 30.2 µM, respectively.
`COc1cc(C(=N)N)ccc1-c1cc(-c2cccc(C(=N)N)c2)no1.Cl.Cl` [Compound 18, 5-(4-Amidino-2-methoxyphenyl)-3-(3-amidinophenyl)isoxazole dihydrochloride]: the melting point lay within 241 to 246 °C. The IC50 in series [1] (setting [5]) amounted to 0.0065 µM. For the same molecule, the IC50 in series [1] (setting [6]) came to 0.0065 µM. For the same molecule, the IC50 in series [2] (setting [7]) is 0.0035 µM. In series [3], it took 177 µM to reach half-maximal inhibition (IC50). Moreover, the IC50 in series [4] (setting [9]) was more than 100 µM.
For `c1cc(C2=NCCN2)cc(-c2cc(-c3cccc(C4=NCCN4)c3)on2)c1` [Compound 34, 3,5-Bis[3-(2-imidazolinyl)phenyl]isoxazole dihydrochloride], the half-maximal inhibitory concentration (IC50) in series [1] (setting [10]) was found to be 18.5 µM; in series [2] (setting [11]) it was 0.227 µM; in series [4] (setting [12]), 26.2 µM.
For the molecule `COc1cc(C(=N)N)ccc1-c1cc(-c2ccc(C(=N)N)cc2)no1` [Compound 8, 5-(4-Amidino-2-methoxyphenyl)-3-(4-amidinophenyl)isoxazole dihydrochloride], the IC50 is 0.0106 µM in series [1] (setting [5]); 0.006 µM in series [2] (setting [7]); less than 0.008 µM in series [2] (setting [8]); 122 µM in series [3]; more than 100 µM in series [4] (setting [9]).
On to `COc1cc(C(=N)N)ccc1-c1cc(-c2ccc(C(=N)N)cc2OC)on1` [Compound 12, 3,5-Bis(4-amidino-2-methoxyphenyl)isoxazole dihydrochloride], for which the IC50 in series [1] (setting [5]) is 0.013 µM; in series [2] (setting [7]) it was 0.0061 µM; in series [2] (setting [8]) it was less than 0.008 µM; in series [3], 84.8 µM; in series [4] (setting [9]), more than 100 µM.
For `COc1ccc(C2=NCCN2)cc1-c1cc(-c2cc(C3=NCCN3)ccc2OC)on1` [Compound 43, 3,5-Bis[5-(2-imidazolinyl)-2-methoxyphenyl]isoxazole dihydrochloride], the IC50 in series [1] (setting [10]) was 0.0448 µM; in series [2] (setting [11]), 0.0114 µM; in series [4], 164 µM.
Turning to `c1cc(C2=NCCN2)cc(-c2cc(-c3ccc(C4=NCCN4)cc3)on2)c1` [Compound 15, 3-[3-(2-Imidazolinyl)phenyl]-5-[4-(2-imidazolinyl)phenyl]isoxazole dihydrochloride], the IC50 in series [1] (setting [10]) came out at 1.55 µM; in series [2] (setting [11]), 0.0512 µM; in series [4] (setting [12]), 65 µM.
`Cl.Cl.N=C(N)c1ccc(-c2cc(-c3cc(C(=N)N)ccc3Cl)no2)cc1` [Compound 20, 3-(5-Amidino-2-chlorophenyl)-5-(4-amidinophenyl)isoxazole dihydrochloride]: the melting point stood at 348 °C. Also, the IC50 in series [1] (setting [5]) stood at 0.0212 µM. Moreover, the half-inhibitory concentration (IC50) in series [2] (setting [7]) amounted to 0.0071 µM. In addition, the IC50 in series [2] (setting [8]) is less than 0.008 µM. This molecule also displayed an IC50 in series [3] of 5.67 µM.
`Cl.Cl.N=C(N)c1cccc(-c2cc(-c3ccc(C(=N)N)cc3Cl)no2)c1` [Compound 28, 3-(4-Amidino-2-chlorophenyl)-5-(3-amidinophenyl)isoxazole dihydrochloride]: the melting point is 210 °C (dec.). The IC50 in series [1] (setting [5]) turned out to be 0.0116 µM. The IC50 in series [2] (setting [7]) came to 0.0141 µM. Further, the IC50 in series [2] (setting [8]) is 0.008 to 0.03 µM. The same molecule yielded a 50% inhibitory concentration (IC50) in series [3] of 87.4 µM.
With `COc1ccc(C(=N)NC(C)C)cc1-c1cc(-c2cc(C(=N)NC(C)C)ccc2OC)on1.Cl.Cl` [Compound 42, 3,5-Bis[5-(N-isopropyl)amidino-2-methoxyphenyl]isoxazole dihydrochloride], the melting point is 185 °C (dec.). Further, the IC50 in series [1] (setting [5]) worked out at 0.374 µM. Further, in series [2] (setting [7]), the IC50 stood at 0.0932 µM. Also, the IC50 in series [3] came to 21.7 µM.
For `CC(C)NC(=N)c1ccc(-c2cc(-c3ccc(C(=N)NC(C)C)cc3)on2)cc1.Cl.Cl` [Compound 4, 3,5-Bis[4-(N-isopropyl)amidinophenyl]isoxazole dihydrochloride], the IC50 in series [1] (setting [5]) is 0.196 µM; in series [2] (setting [7]) it was 0.0066 µM; in series [2] (setting [8]), less than 0.008 µM; in series [3], 176 µM; in series [4] (setting [9]) it was more than 100 µM. For the same molecule, the “selectivities against P. falciparum over T. brucei brucei” value in series [2] came out at 30 fold. Also, in series [4], the “toxicity (VERO cells) in words” value is on record as “very nontoxic”.
With `Cl.Cl.N=C(N)c1ccc(-c2cc(-c3ccc(C(=N)N)cc3Cl)on2)cc1` [Compound 7, 5-(4-Amidino-2-chlorophenyl)-3-(4-amidinophenyl)isoxazole dihydrochloride], the melting point is > 350 °C (dec.). In series [1] (setting [5]), the half-maximal inhibitory concentration (IC50) came out at 0.0155 µM. For the same molecule, in series [2] (setting [7]), the IC50 was determined as 0.0079 µM. Moreover, in series [2] (setting [8]), the IC50 is less than 0.008 µM. Moreover, half-maximal inhibition in series [3] (IC50) was put at 41 µM.
